Key:
Format in all cases: in vivo
Hordeum vulgare (HORVW) [1] = assay: Pre-emergence herbicidal evaluation, winter barley
Procedure, shortened: (§1)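 Seeds are mixed into potting soil and planted; the pots are sprayed with aqueous acetone containing compound (about 0.0125 to 0.4 kg/ha equivalent); they are kept and watered in a greenhouse; each pot is rated at 2 to 4 weeks.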

[2] = system: Ambrosia artemiisifolia (AMBEL); assay: Pre-emergence herbicidal evaluation, ragweed
Excerpt: (§2) The pre-emergence herbicidal activity of the compounds of the present invention is exemplified by the following test in which the seeds of a variety of monocotyledonous and dicotyledonous plants are seperately mixed with potting soil and planted on top of approximately one inch of soil in separate pots. After planting, the pots are sprayed with the selected aqueous acetone solution containing test compound in sufficient quantity to provide the equivalent of about 0.0125 to 0.4 kg per hectare of test compound per pot. The treated pots are then placed on greenhouse benches, watered and cared for in accordance with conventional greenhouse procedures. From 2 to 4 weeks after treatment, the tests are terminated and each pot is examined and rated according to the rating system set forth below.

[3] = system: Cassia obtusifolia (CASOB); assay: Pre-emergence herbicidal evaluation, sicklepod
Excerpt: as §2

Lamium purpureum (LAMPU) = assay: Pre-emergence herbicidal evaluation, purple deadnettle
Procedure, shortened: as §1

[4] = system: Echinochloa grus galli (ECHCG); assay: Pre-emergence herbicidal evaluation, barnyard grass
Excerpt: as §2

Hordeum vulgare (HORVW) [5] = assay: Post-emergence herbicidal evaluation, winter barley; conditions: rated 2 to 4 weeks after treatment
Method: (§3) [table] [table] […] These acetone solutions are diluted with water and the resulting formulations applied at dosage levels equivalent of about 0.03 to 0.4 kg per hectare of test compound per pot. After spraying the plants are placed on greenhouse benches and are cared for in the usual manner, commensurate with conventional greenhouse practices. From 2 to 4 weeks after treatment, the seedling plants are examined and rated according to the rating system provided above. A rating 0 indicates growth as untreated control, a rating 9 indicates death.

[6] = system: Cassia obtusifolia (CASOB); assay: Post-emergence herbicidal evaluation, sicklepod; conditions: rated 2 to 4 weeks after treatment
Method: as §3

Solanum nigrum (SOLNI) = assay: Post-emergence herbicidal evaluation, black nightshade; conditions: rated 2 to 4 weeks after treatment
Method: as §3

[7] = system: Echinochloa grus galli (ECHCG); assay: Post-emergence herbicidal evaluation, barnyard grass; conditions: rated 2 to 4 weeks after treatment
Method: as §3

[8] = system: Digitaria sanguinalis (DIGSA); assay: Pre-emergence herbicidal evaluation, large crabgrass
Procedure, shortened: as §1

weeds = assay: Post-emergence herbicidal evaluation, overall weed control; conditions: in barley at crop selective doses
Method: as §3

SMILES	HORVW rating (Hordeum vulgare (HORVW) [1]; dose 0.013 kg/ha)	HORVW rating (Hordeum vulgare (HORVW) [1]; dose 0.025 kg/ha)	HORVW rating (Hordeum vulgare (HORVW) [1]; dose 0.1 kg/ha)	HORVW rating (Hordeum vulgare (HORVW) [1]; dose 0.4 kg/ha)	AMBEL rating ([2]; dose 0.013 kg/ha)	AMBEL rating ([2]; dose 0.025 kg/ha)	AMBEL rating ([2]; dose 0.1 kg/ha)	AMBEL rating ([2]; dose 0.4 kg/ha)	LAMPU rating (Lamium purpureum (LAMPU); dose 0.013 kg/ha)	LAMPU rating (Lamium purpureum (LAMPU); dose 0.025 kg/ha)	LAMPU rating (Lamium purpureum (LAMPU); dose 0.1 kg/ha)	LAMPU rating (Lamium purpureum (LAMPU); dose 0.4 kg/ha)	ECHCG rating ([4]; dose 0.013 kg/ha)	ECHCG rating ([4]; dose 0.025 kg/ha)	ECHCG rating ([4]; dose 0.1 kg/ha)	ECHCG rating ([4]; dose 0.4 kg/ha)	HORVW rating (Hordeum vulgare (HORVW) [5]; dose 0.03 kg/ha)	HORVW rating (Hordeum vulgare (HORVW) [5]; dose 0.1 kg/ha)	HORVW rating (Hordeum vulgare (HORVW) [5]; dose 0.4 kg/ha)	SOLNI rating (Solanum nigrum (SOLNI); dose 0.03 kg/ha)	also measured
Cc1cc(OC/C=C/C(F)(F)F)nc(Oc2cc(C(F)(F)F)nn2C)c1 [Example 1, (E)-2-(1-Methyl-3-trifluoromethylpyrazol-5-yloxy)-4-methyl-6-(4,4,4-trifluorobut-2-enyloxy)pyridine]	1 (1 - Trace effect)	2 (2 - Slight effect)	5 (5 - Definite injury)	5 (5 - Definite injury)	5 (5 - Definite injury)	9 (9 - Complete kill)	9 (9 - Complete kill)	9 (9 - Complete kill)	8 (8 - Approaching complete kill)	9 (9 - Complete kill)	9 (9 - Complete kill)	9 (9 - Complete kill)	3 (3 - Moderate effect)	5 (5 - Definite injury)	7 (7 - Good herbicidal effect)	9 (9 - Complete kill)	3 (3 - Moderate effect)	5 (5 - Definite injury)	5 (5 - Definite injury)	5 (5 - Definite injury)	CASOB rating ([3]; dose 0.013 kg/ha): 0 (0 - No effect); CASOB rating ([3]; dose 0.025 kg/ha): 9 (9 - Complete kill); CASOB rating ([3]; dose 0.1 kg/ha): 9 (9 - Complete kill); CASOB rating ([3]; dose 0.4 kg/ha): 9 (9 - Complete kill); CASOB rating ([6]; dose 0.03 kg/ha): 5 (5 - Definite injury); CASOB rating ([6]; dose 0.1 kg/ha): 5 (5 - Definite injury); CASOB rating ([6]; dose 0.4 kg/ha): 5 (5 - Definite injury); SOLNI rating (Solanum nigrum (SOLNI); dose 0.1 kg/ha): 5 (5 - Definite injury); SOLNI rating (Solanum nigrum (SOLNI); dose 0.4 kg/ha): 5 (5 - Definite injury); ECHCG rating ([7]; dose 0.03 kg/ha): 5 (5 - Definite injury); ECHCG rating ([7]; dose 0.1 kg/ha): 8 (8 - Approaching complete kill); ECHCG rating ([7]; dose 0.4 kg/ha): 8 (8 - Approaching complete kill)
COc1cc(OCC(F)(F)C(F)F)nc(Oc2cc(C(F)(F)F)nn2C)c1 [Example 4, 2-(1-Methyl-3-trifluoromethylpyrazol-5-yloxy)-4-methoxy-6-(2,2,3,3-tetrafluoropropyloxy)pyridine]	1 (1 - Trace effect)	2 (2 - Slight effect)	3 (3 - Moderate effect)	4 (4 - Injury)	4 (4 - Injury)	9 (9 - Complete kill)	9 (9 - Complete kill)	9 (9 - Complete kill)	8 (8 - Approaching complete kill)	8 (8 - Approaching complete kill)	9 (9 - Complete kill)	9 (9 - Complete kill)	3 (3 - Moderate effect)	5 (5 - Definite injury)	8 (8 - Approaching complete kill)	8 (8 - Approaching complete kill)	3 (3 - Moderate effect)	3 (3 - Moderate effect)	5 (5 - Definite injury)	4 (4 - Injury)	CASOB rating ([3]; dose 0.013 kg/ha): 3 (3 - Moderate effect); CASOB rating ([3]; dose 0.025 kg/ha): 4 (4 - Injury); CASOB rating ([3]; dose 0.1 kg/ha): 7 (7 - Good herbicidal effect); CASOB rating ([3]; dose 0.4 kg/ha): 9 (9 - Complete kill); SOLNI rating (Solanum nigrum (SOLNI); dose 0.1 kg/ha): 5 (5 - Definite injury); SOLNI rating (Solanum nigrum (SOLNI); dose 0.4 kg/ha): 5 (5 - Definite injury); ECHCG rating ([7]; dose 0.03 kg/ha): 6 (6 - Herbicidal effect); ECHCG rating ([7]; dose 0.1 kg/ha): 8 (8 - Approaching complete kill); ECHCG rating ([7]; dose 0.4 kg/ha): 9 (9 - Complete kill)
Cc1cc(OCC(F)(F)C(F)(F)C(F)(F)C(F)F)nc(Oc2cc(C(F)(F)F)nn2C)c1 [Example 8]	0 (0 - No effect)	1 (1 - Trace effect)	3 (3 - Moderate effect)	4 (4 - Injury)	5 (5 - Definite injury)	7 (7 - Good herbicidal effect)	8 (8 - Approaching complete kill)	8 (8 - Approaching complete kill)	8 (8 - Approaching complete kill)	8 (8 - Approaching complete kill)	9 (9 - Complete kill)	9 (9 - Complete kill)	1 (1 - Trace effect)	1 (1 - Trace effect)	6 (6 - Herbicidal effect)	8 (8 - Approaching complete kill)	2 (2 - Slight effect)	3 (3 - Moderate effect)	3 (3 - Moderate effect)	3 (3 - Moderate effect)	DIGSA rating ([8]; dose 0.013 kg/ha): 1 (1 - Trace effect); DIGSA rating ([8]; dose 0.025 kg/ha): 2 (2 - Slight effect); DIGSA rating ([8]; dose 0.1 kg/ha): 9 (9 - Complete kill); DIGSA rating ([8]; dose 0.4 kg/ha): 9 (9 - Complete kill); CASOB rating ([6]; dose 0.03 kg/ha): 2 (2 - Slight effect); CASOB rating ([6]; dose 0.1 kg/ha): 7 (7 - Good herbicidal effect); CASOB rating ([6]; dose 0.4 kg/ha): 7 (7 - Good herbicidal effect); SOLNI rating (Solanum nigrum (SOLNI); dose 0.1 kg/ha): 5 (5 - Definite injury); SOLNI rating (Solanum nigrum (SOLNI); dose 0.4 kg/ha): 8 (8 - Approaching complete kill); ECHCG rating ([7]; dose 0.03 kg/ha): 2 (2 - Slight effect); ECHCG rating ([7]; dose 0.1 kg/ha): 5 (5 - Definite injury); ECHCG rating ([7]; dose 0.4 kg/ha): 8 (8 - Approaching complete kill); broad-leaved weed control (weeds): effective
Cc1cc(OCC=C(Cl)Cl)nc(Oc2cc(C(F)(F)F)nn2C)c1 [Example 12]	3 (3 - Moderate effect)	4 (4 - Injury)	5 (5 - Definite injury)	8 (8 - Approaching complete kill)	8 (8 - Approaching complete kill)	8 (8 - Approaching complete kill)	9 (9 - Complete kill)	9 (9 - Complete kill)	8 (8 - Approaching complete kill)	9 (9 - Complete kill)	9 (9 - Complete kill)	9 (9 - Complete kill)	3 (3 - Moderate effect)	5 (5 - Definite injury)	8 (8 - Approaching complete kill)	9 (9 - Complete kill)	3 (3 - Moderate effect)	5 (5 - Definite injury)	6 (6 - Herbicidal effect)	8 (8 - Approaching complete kill)	DIGSA rating ([8]; dose 0.013 kg/ha): 9 (9 - Complete kill); DIGSA rating ([8]; dose 0.025 kg/ha): 9 (9 - Complete kill); DIGSA rating ([8]; dose 0.1 kg/ha): 9 (9 - Complete kill); DIGSA rating ([8]; dose 0.4 kg/ha): 9 (9 - Complete kill); CASOB rating ([6]; dose 0.03 kg/ha): 8 (8 - Approaching complete kill); CASOB rating ([6]; dose 0.1 kg/ha): 8 (8 - Approaching complete kill); CASOB rating ([6]; dose 0.4 kg/ha): 8 (8 - Approaching complete kill); SOLNI rating (Solanum nigrum (SOLNI); dose 0.1 kg/ha): 8 (8 - Approaching complete kill); SOLNI rating (Solanum nigrum (SOLNI); dose 0.4 kg/ha): 8 (8 - Approaching complete kill); ECHCG rating ([7]; dose 0.03 kg/ha): 9 (9 - Complete kill); ECHCG rating ([7]; dose 0.1 kg/ha): 9 (9 - Complete kill); ECHCG rating ([7]; dose 0.4 kg/ha): 9 (9 - Complete kill)

From US6852673B2, “Herbicidal pyridine compounds” (BASF Aktiengesellschaft, priority 1998, dated 2005)
